Assay results as given in paper PMC6356231, “Capillasterin A, a Novel Pyrano[2,3-f]chromene from the Australian Crinoid Capillaster multiradiatus” (Marine Drugs, 2019).
Like-named read-outs stand apart in the source and are kept apart here.

What was measured:
[1] = system: multidrug transporter ABCG2; parameters: method as in PMID 20627559; settings: cited from earlier work
[2] = system: HIV-1 strain NL4.3; experiment: multi-cycle HIV-1 replication assay in CEM-GXR GFP-reporter T cells; type: cell-based; settings: for EC50: read-out: EC50, in vitro HIV-1 replication; for inhibition of HIV-1 replication (in words): CEM-GXR T cell line
Procedure: The ability of compounds 1–7 to inhibit HIV-1 replication was evaluated in vitro using an established multi-cycle replication assay. Briefly, the CEM-GXR T cell line, which contains an HIV-1 promoter-driven green fluorescent protein (GFP) reporter, was infected with the full-length, infectious HIV-1 strain NL4.3 at a multiplicity of infection of 0.03 [18]. After 24 hours, cells were washed and subsequently incubated with compounds 1–7, the control HIV inhibitor efavirenz, or 0.1% DMSO vehicle control. GFP expression, a marker of viral replication, was then measured by flow cytometry after 72 hours.
(§1) The following reagents were obtained from the NIH AIDS Reagent Program: CEM CD4^+ cells (CEM) from Dr. J.P. Jacobs, [23] and pNL4-3 from M. Martin [24]. Efavirenz and panobinostat were purchased from Sigma-Aldrich (St. Louis, MO, USA). CEM and CEM-derived GXR25 GFP-reporter T cells (CEM-GXR; [18]) were cultured in R10+ medium [RPMI-1640 with HEPES and L-Glutamine (Lonza, Basel, Switzerland), 10% fetal calf serum, 100 U of penicillin/mL, and 100 µg of streptomycin/mL Sigma-Aldrich (St. Louis, MO, USA)]. Production of HIV-1 NL4.3 and multi-cycle HIV-1 replication assays were performed as described previously. Apoptosis assays were performed by staining CEM cells with annexin V-APC (BioLegend, San Diego, CA) according to manufacturer instructions.

[3] = system: GFP-expressing immortalised mouse olfactory ensheathing cells (mOEC); experiment: mOEC cell proliferation (resazurin viability) assay; type: cell-based; settings: 10 µM, 24 hours of treatment
Procedure: Compounds 1–7 have now been added to the Davis Open-Access Compound Library housed at Compounds Australia, Griffith University, where they are available for collaboration in drug discovery or chemical biology research.
The cell proliferation assay was performed according to the method described by Chen et al., with modification. Briefly, GFP-expressing immortalised mouse OECs (mOEC) were seeded at 2000 cells/well in a 384-well microplate (Greiner Bio-One, Kremsmünster, Austria) with a Multidrop™ Combi Reagent Dispenser (Thermo Fisher Scientific, Waltham, MA, USA) using the BioCel Automation System (Agilent Technologies, Santa Clara, CA, USA) and incubated overnight at 37 °C under 5% CO2. After 24 hours, the cells were treated with 4 different concentrations of pure compounds (10, 1, 0.1 and 0.01 µM). 0.2% DMSO was used as negative control. Plates were incubated for 24 hours at 37 °C under 5% CO2. Cell viability of mOECs was measured by adding 5 µL of resazurin (500 μM, Sigma-Aldrich, Sydney, Australia) to the cells and incubated in dark for 4 hours at 37 °C under 5% CO2. The dehydrogenase enzymes found in metabolically active cells will convert resazurin to resofurin products that are soluble in culture medium. The fluorescent resofurin products produced by the viable cells are quantified using an EnVision™ Multilabel (PerkinElmer, Waltham, MA, USA) plate reader at 535/595nm. After that, the cells were fixed and stained with Hoechst (Thermo Fisher Scientific, Waltham, MA, USA) and stored at 4 °C prior to imaging. Cells were imaged automatically using Operetta™ (PerkinElmer, Waltham, MA, USA). Individual cell segmentation and cell count were performed using the Harmony 3.5.2® software.

[4] = system: CEM cells; experiment: apoptosis (annexin V-APC) cellular toxicity assay in CEM cells; type: cell-based; settings: 72 hours
Procedure: Compounds 1–7 were further assessed for cellular toxicity in CEM cells, the parental cell line of CEM-GXR. After 72 hours’ treatment with compounds, toxicity was assessed by measuring the surface expression of the early apoptotic marker annexin V by flow cytometry (by staining with annexin V-APC). […] In contrast, no increase in apoptosis was observed up to 100 µM for compounds 1–7, with the exception of compound 2, which induced 1.4 ± 0.2 and 2.2 ± 0.4-fold increases at 30 and 100 µM, respectively.
as §1

[5] = compound stability (observation); type: physicochemical
[6] = Human immunodeficiency virus 1, CEM-GXR T cells, HIV-1 NL4.3, MOI 0.03, GFP by flow cytometry after 72 hours, mean ± s.d. of three independent experiments

## CCCc1cc(=O)c2c(O)c3c(OC)cc(O)cc3c(OC)c2o1
[1]
  inhibition of ABCG2 (in words): inhibit

## CCCc1cc(=O)c2c(cc(C(C)=O)c3c(OC)cc(=O)oc32)o1 [Compound 1, 5-acetyl-4-methoxy-8-propylpyrano[2,3-f]chromene-2,10-dione]
[2]; [6]
  EC50: > 100 µM
[3]
  increase in mOEC viability (in words): none of the compounds showed a significant increase

## CCCc1cc(=O)c2c(O)cc3cc(O)cc(OC)c3c2o1 [Compound 2, comaparvin]
[2]; HIV-1 replication EC50, angular vs linear naphthopyrone
  fold increase in activity as compared to 5: approximately 2.0 fold
[2]; [6]
  EC50: 7.5 ± 1.7 µM
[4]; 30 µM
  fold increase in apoptotic cells relative to 0.1% DMSO: 1.4 ± 0.2 fold
[4]; 100 µM
  fold increase in apoptotic cells relative to 0.1% DMSO: 2.2 ± 0.4 fold

## COc1cc(O)cc2cc(O)c3c(=O)cc(C)oc3c12 [Compound 3, TMC-256C1]
[2]
  inhibition of HIV-1 replication (in words): weaker but consistent antiviral activity
[2]; HIV-1 replication EC50, methyl instead of propyl at C-2
  fold reduction in activity compared to 2: 3.4 fold
[2]; [6]
  EC50: 25.5 ± 3.4 µM

## CCCc1cc(=O)c2c(OC)c(OC)c3cc(O)cc(OC)c3c2o1 [Compound 4, 6-methoxycomaparvin-5-methyl ether]
[2]; [6]
  EC50: 14.5 ± 5.8 µM
[3]
  increase in mOEC viability (in words): none of the compounds showed a significant increase

## CCCc1cc(=O)c2c(O)c3c(OC)cc(O)cc3cc2o1 [Compound 5, 5,8-dihydroxy-6-methoxy-2-propyl-4H-naphtho[2,3-b]pyran-4-one]
[2]; [6]
  EC50: 15.6 ± 6.5 µM

## CCCc1cc(=O)c2c(O)c3c(OC)cc(O)cc3c(OC)c2o1 [Compound 6, 5,8-dihydroxy-6,10-dimethoxy-2-propyl-4H-naphtho[2,3-b]pyran-4-one]
[2]; [6]
  EC50: 20.2 ± 4.9 µM

## COc1cc(O)cc2cc3oc(C)cc(=O)c3c(O)c12 [Compound 7, TMC-256A1]
[2]
  inhibition of HIV-1 replication (in words): no detectable activity
[2]; [6]
  EC50: > 100 µM
[3]
  increase in mOEC viability (in words): none of the compounds showed a significant increase

## CCCc1cc(=O)c2c(O)c(OC)c3cc(O)cc(OC)c3c2o1 [Compound 8, 6-methoxycomaparvin]
[5]
  stability (in words): unstable

## O=C1Nc2ccc(Cl)cc2[C@@](C#CC2CC2)(C(F)(F)F)O1 [Efavirenz, reference compound]
[2]; Human immunodeficiency virus 1, CEM-GXR, 72 h
  EC50: 0.0025 ± 0.0019 µM

## COc1cc(O)cc2cc3oc(C)cc(=O)c3c(O)c12 [TMC-256A1]
[1]
  inhibition of ABCG2 (in words): inhibit

## Cc1[nH]c2ccccc2c1CCNCc1ccc(/C=C/C(=O)NO)cc1 [panobinostat, reference compound]
[4]; 3 µM
  fold increase in apoptotic cells relative to 0.1% DMSO: 4.2 ± 1.8 fold
